Source: ChEMBL document CHEMBL3352648, “Bioactive constituents of Cirsium japonicum var. australe” (J Nat Prod, 2014)
Converted amounts (≈) assume the structure as drawn. The source made the active and inactive calls. The rule behind the calls is not given here.

Columns and labels:
3T3-L1 [1] = assay: Hypoglycemic activity in mouse 3T3L1 cells assessed as increase in glucose consumption at 25 ug/ml after 24 hrs by 2-deoxyglucose uptake assay; type: functional, cell-based
3T3-L1 [2] = assay: Effect on lipid accumulation in mouse 3T3L1 cells at 20 ug/ml for 7 days by Oil Red O dye; type: functional, cell-based
3T3-L1 [3] = assay: Hypoglycemic activity in mouse 3T3L1 cells assessed as increase in glucose consumption at 12.5 ug/ml after 24 hrs by 2-deoxyglucose uptake assay; type: functional, cell-based
3T3-L1 [4] = assay: Hypoglycemic activity in mouse 3T3L1 cells assessed as increase in glucose consumption at 50 ug/ml after 24 hrs by 2-deoxyglucose uptake assay; type: functional, cell-based
[5] = Antioxidant activity assessed as DPPH radical scavenging activity; type: physicochemical
[6] = Antioxidant activity assessed as ABTS radical scavenging activity; type: physicochemical
3T3-L1 [7] = assay: Hypoglycemic activity in mouse 3T3L1 cells assessed as increase in glucose consumption at 50 ug/ml after 24 hrs by 2-deoxyglucose uptake assay

Compound | Activity (3T3-L1 [1]) | Activity (3T3-L1 [2]) | Activity (3T3-L1 [3]) | Activity (3T3-L1 [4]) | EC50 [5] [µg/mL] | EC50 [6] [µg/mL] | Activity (3T3-L1 [7])
C=CCCCCCC(O)C(O)C(O)C#CC#CCCC (stereo not drawn) | Active | inactive | Active | Active | – | – | –
CCOC(=O)/C=C/c1ccc(O)c(O)c1 [ETHYL CAFFEATE] | – | – | – | Active | 0.18 (≈ 0.864 µM) | 0.19 (≈ 0.913 µM) | –
O=c1cc(-c2ccc(O)cc2)oc2cc(O)cc(O)c12 | – | – | – | – | – | – | inactive
